Measurements as given in patent US11970731B2, “Enhancement of nucleic acid polymerization by aromatic compounds” (priority 2018, dated 2024).

How the values were obtained:
[1] = tested on: DNA polymerase; assay: Screen of PEMs for enhancement of XNTP polymerization (primer extension, gel electrophoresis); format: biochemical; conditions: for DNA polymerase-mediated primer extension with XNTPs (length of extension products): FIG. 4 gel, 45 mer template, without PEM additive up to only around 14 XNTPs
Procedure: A representative primer extension reaction may include the following reagents: 2 pmol primer, 2.2 pmol 45 mer oligonucleotide template, 50 pmol of each XNTP (XATP, XCTP, XGTP, and XTTP), 50 mM Tris HCl, pH 6.79, 200 mM NaCl, 20% PEG, 5% NMS, 0.5 nmol polyphosphate 60.19, 0.3 mM MnCl2, and 0.6 μg of purified recombinant DNA polymerase protein. Reactions may be run for 1 hr at 23° C. Reaction products (i.e., constrained Xpandomers) are treated to cleave the phosphoramidate bonds, thereby generating linearized Xpandomers. Reaction products may be analyzed using gel electrophoresis on 4-12% acrylamide gels to resolve and visualize Xpandomer products of different lengths. For the PEM screen described above, PEMs were typically tested in the micro to millimolar range.
Again, this PEM activity is specific for compound 2, as other unrelated aromatic compounds had no effect (lanes 2-7).

[2] = target: T1, C4760 DNA polymerase (a variant of DPO4) (Saccharolobus solfataricus, UniProt Q97W02, A155G/A42V/D156R/D292Y/D294N/E291S/E324K/E325K/E327K/E63R/E79L/G187P/G299W/I153V/I189F/I248T/I295S/K152A/K317Q/K321Q/K56Y/K78D/L293W/M76W/N188Y/P184Q/Q82W/Q83G/R300S/S297Y/S86E/T290K/T301W/V289W/V296Q); assay: Primer extension assays using the HIV2 100 mer template; format: biochemical, Sulfolobus solfataricus
T1 construct: made in house
T1 sequence (Q97W02 other isoform, or with tags, fused parts or gaps with the stated changes): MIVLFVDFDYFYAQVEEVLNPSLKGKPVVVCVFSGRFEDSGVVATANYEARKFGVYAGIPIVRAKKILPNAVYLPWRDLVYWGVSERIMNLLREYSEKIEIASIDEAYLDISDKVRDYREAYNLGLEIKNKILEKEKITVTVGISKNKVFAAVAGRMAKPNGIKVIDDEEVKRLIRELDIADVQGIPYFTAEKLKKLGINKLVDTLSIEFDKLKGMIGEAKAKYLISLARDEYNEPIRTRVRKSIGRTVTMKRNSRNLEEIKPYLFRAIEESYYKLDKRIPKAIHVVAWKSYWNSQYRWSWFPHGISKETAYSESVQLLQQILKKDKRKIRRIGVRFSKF
Procedure: PEM activity of compound 12 was tested in primer extension assays using the HIV2 100 mer template. Primer extension reactions included the following reagents: 50 mM TrisCl, 200 mM NH4OAc, 20% PEG8K, 5% NMS, 0.6 nmol PP-60.20, 0.6 mM MnCl2, 2.75 μg/μl Eco single-strand binding protein (SSB), 1 M urea, 50 pmol each XNTP, 1.1 pmol template, 1 pmol oligonucleotide primer, 1.2 μg/μl purified recombinant C4760 DNA polymerase (SEQ ID NO:2), and 0.5, 1, or 1.5 mM PEM. 10 μL primer extension reactions were run for 30 minutes at 23° C. and reaction products were analyzed by gel electrophoresis. […] Lanes 2-4 show primer extension products from reactions with a structurally related additive lacking robust PEM activity.
PEM activity of compounds 13 and 14 was tested in primer extension assays using the HIV2 100 mer template. Primer extension reactions included the following reagents: 50 mM TrisCl, 200 mM NH4OAc, 20% PEG8K, 5% NMS, 0.6 nmol PP-60.20, 0.6 mM MnCl2, 2.75 μg/μl Eco single-strand binding protein (SSB), 1 M urea, 50 pmol each XNTP, 1.1 pmol template, 1 pmol oligonucleotide primer, 1.2 μg/μl purified recombinant C4760 DNA polymerase (a variant of DPO4, see SEQ ID NO:2), and 0.5, 1, 1.52, or 2.5 mM PEM. 10 μL primer extension reactions were run for 30 minutes at 23° C. and reaction products were analyzed by gel electrophoresis. A representative gel showing primer extension products is presented in FIG. 11 (the position of the full length HIV2 100 mer is indicated by the arrow).
PEM activity of compounds 16, 17, and 18 and combinations thereof were tested in primer extension assays using the HIV2-derived 100mer template. Primer extension reactions included the following reagents: 50 mM TrisCl, 200 mM NH4OAc, 20% or 25% PEG8K, 5% NMS, 0.6 nmol PP-60.20, 0.6 mM MnCl2, 2 μg Kod single-strand binding protein (SSB), 1 M urea, 50 pmol each XNTP, 1 pmol template, 1 pmol oligonucleotide primer, 1.2 μg purified recombinant C4760 DNA polymerase (a variant of DPO4, see SEQ ID NO:2), and 0.5-2 mM PEM. 10 μL primer extension reactions were run for 30 minutes at 37° C. and reaction products were analyzed by gel electrophoresis. A representative gel showing primer extension products is presented in FIG. 13 (the position of a 100mer product is indicated by the arrow).

[3] = 2 mM compound 16, 0.5, 1, 2, and 3 mM compound 17, Kod SSB, 30 minutes at 37° C., FIG. 13, comparator compound 14 (lane 1)
[4] = 0.5, 1, 1.52, or 2.5 mM PEM, Eco SSB, 30 minutes at 23° C., FIG. 11, comparator compound 10 (lanes 1-4)

SMILES: O=C(O)c1ccc(-n2cc(-c3cccc(-c4cn(-c5ccc(C(=O)O)c(O)c5)nn4)c3)nn2)cc1O [Compound 3, 4,4′-(1,3-phenylenebis(1H-1,2,3-triazole-4,1-diyl))bis(2-hydroxybenzoic acid)]
- DNA polymerase-mediated primer extension with XNTPs (length of extension products) [1]: enables the polymerase to synthesize considerably longer extension products

SMILES: N#Cc1cc(-c2cn(-c3ccc(O)c(C(=O)O)c3)nn2)nc(-c2cn(-c3ccc(O)c(C(=O)O)c3)nn2)c1 [Compound 12, 5,5′-((4-cyanopyridine-2,6-diyl)bis(1H-1,2,3-triazole-4,1-diyl))bis(2-hydroxybenzoic acid)]
- PEM activity: polymerization of XNTPs into Xpandomer copies of the 100 mer template ([2]; 0.5, 1, or 1.5 mM PEM, Eco SSB, 30 minutes at 23° C., FIG. 10, comparable to compound 10 (lane 1)): enables polymerization of XNTPs into full length Xpandomer copies of the 100 mer template

SMILES: CCNC(=O)c1cc(-c2cn(-c3ccc(C(=O)O)c(O)c3)nn2)nc(-c2cn(-c3ccc(C(=O)O)c(O)c3)nn2)c1 [Compound 17, 4,4′-((4-(ethylcarbamoyl)pyridine-2,6-diyl)bis(1H-1,2,3-triazole-4,1-diyl))bis(2-hydroxybenzoic acid)]
- PEM activity: polymerization of XNTPs into Xpandomer copies of the 100 mer template [2, 3]: enable polymerization of XNTPs into lengthy Xpandomer copies of the 100 mer template in a manner comparable to that of compound 14

SMILES: CCOC(=O)c1cc(-c2cn(-c3ccc(C(=O)O)c(O)c3)nn2)nc(-c2cn(-c3ccc(C(=O)O)c(O)c3)nn2)c1 [Compound 14, 4,4′-((4-(ethoxycarbonyl)pyridine-2,6-diyl)bis(1H-1,2,3-triazole-4,1-diyl))bis(2-hydroxybenzoic acid)]
- PEM activity: polymerization of XNTPs into Xpandomer copies of the 100 mer template [2, 4]: enables polymerization of XNTPs into full length Xpandomer copies of the 100 mer template in a manner comparable to that of compound 10

SMILES: O=C(O)c1ccc(-n2cc(-c3cncc(-c4cn(-c5ccc(C(=O)O)c(O)c5)nn4)c3)nn2)cc1O [Compound 2, 4,4′-(pyridine-3,5-diylbis(1H-1,2,3-triazole-4,1-diyl))bis(2-hydroxybenzoic acid)]
- primer extension activity with XNTPs ([1]; FIG. 5 gel, compound at various concentrations (lanes 8-10), without PEM additive modest activity): significantly enhances primer extension activity

SMILES: Cc1cc(-c2cn(-c3ccc(C(=O)O)c(O)c3)nn2)nc(-c2cn(-c3ccc(C(=O)O)c(O)c3)nn2)c1 [Compound 13, 4,4′-((4-methylpyridine-2,6-diyl)bis(1H-1,2,3-triazole-4,1-diyl))bis(2-hydroxybenzoic acid)]
- PEM activity: polymerization of XNTPs into Xpandomer copies of the 100 mer template [2, 4]: enables polymerization of XNTPs into full length Xpandomer copies of the 100 mer template in a manner comparable to that of compound 10

SMILES: O=C(O)c1ccc(-n2cc(-c3ccc4[nH]c5ccc(-c6cn(-c7ccc(C(=O)O)c(O)c7)nn6)cc5c4c3)nn2)cc1O [Compound 4, 4,4′-((9H-carbazole-3,6-diyl)bis(1H-1,2,3-triazole-4,1-diyl))bis(2-hydroxybenzoic acid)]
- DNA polymerase-mediated primer extension with XNTPs (length of extension products) [1]: enables the polymerase to synthesize considerably longer extension products

SMILES: COC(=O)c1cc(-c2cn(-c3ccc(C(=O)O)c(O)c3)nn2)nc(-c2cn(-c3ccc(C(=O)O)c(O)c3)nn2)c1 [Compound 16, 4,4′-((4-(methoxycarbonyl)pyridine-2,6-diyl)bis(1H-1,2,3-triazole-4,1-diyl))bis(2-hydroxybenzoic acid)]
- PEM activity: polymerization of XNTPs into Xpandomer copies of the 100 mer template [2, 3]: enable polymerization of XNTPs into lengthy Xpandomer copies of the 100 mer template in a manner comparable to that of compound 14
